Experiment [1] relates to Panc02. The experiment is described as follows: Antitumor activity against mouse Panc02 cells implanted in C57BL/6J mouse model assessed as tumor growth inhibition at 10 mg/kg, ip administered every other day for 24 days relative to control. Format: functional. As to conditions: Panc02, 576 h, time 24 day, read-out: TGI.
For experiment [2], the system named is PANC-1. The experiment is described as follows: Antitumor activity against human PANC-1 xenografted in […] mouse model assessed as tumor growth inhibition at 10 mg/kg, ip administered every other day for 24 days relative to control. As to conditions: PANC-1, 576 h, time 24 day, read-out: TGI. Format: functional. In general terms: A xenograft is tissue or cells of one species grown in another, often human tumour cells in immunodeficient mice.

On to `Nc1ccn([C@@H]2O[C@H](CO)[C@@H](O)C2(F)F)c(=O)n1` [GEMCITABINE], for which the inhibition in vivo at 10 mg/kg in experiment [1] amounted to 92.1%; in experiment [2], 82.2%.

The record behind these values is ChEMBL document CHEMBL5512657, “Design, synthesis and evaluation of a pyrazolo[3,4-d]pyrimidine derivative as a novel and potent TGFβ1R1 inhibitor” (Eur J Med Chem, 2024).
